From US12584906B2, “Coating agent for inducing differentiation of pluripotent stem cells into brain microvascular endothelium-like cells and use thereof” (PUBLIC UNIVERSITY CORPORATION NAGOYA CITY UNIVERSITY, priority 2020, dated 2026)

Legend:
[1] = test system: iBMECs derived from 610B1 strain; experiment: Relative TEER values of iBMECs induced and differentiated on each coating layer (day 10 of differentiation); assay type: cell-based, human; details: for TEER value compared with iBMECs induced and differentiated on Matrigel: coating 1 μg/cm^2, FIG. 2
Protocol: A coating layer was formed using each of the above-described coating agents. Matrigel was diluted 30-fold with a maintenance medium for human iPS cells on ice, poured onto a well plate, and allowed to stand at 37° C. for 30 minutes or longer to form a coating layer. FBN, VTN-N, LN221F, LN411F, or LN511F was diluted with PBS so as to be 1 μg/cm^2, poured onto a well plate, and allowed to stand at 37° C. for 1 hour to 2 hours to form a coating layer. In addition, a mixture of Fibronectin and Collagen type IV was diluted with PBS so as to be 100 μg/mL and 400 μg/mL, respectively, poured onto a Transwell insert, and allowed to stand at 37° C. for 2 hours or longer to form a coating layer.
FIG. 1 is a scheme illustrating a protocol for differentiating human iPS cells into iBMECs. […] The differentiation induction was started in a state in which at the time of passage, the cells were seeded on a culture dish coated with each coating agent and cultured in StemSure hPSC medium containing […] FGF2 until the proportion of undifferentiated colonies reached about 60 to 70% (day 0 of differentiation). […]
TEER values of iBMECs (on day 10 of differentiation) derived from 610B1 strain, which cells had been induced and differentiated on Matrigel or FBN, VTN-N, LN221F, LN411F, or LN511F, were measured. The number of samples was 3, and relative TEER values of iBMECs induced and differentiated on FBN, VTN-N, LN221F, LN411F, or LN511F were determined based on the TEER values of iBMECs induced and differentiated on Matrigel (hereinafter, also referred to as “Matrigel-iBMECs”). In addition, for each of 610B1 strain or 648A1 strain, the TEER values of Matrigel-iBMECs or iBMECs induced and differentiated on LN221F (hereinafter, also referred to as “LN221F-iBMECs”) were measured from day 1 after seeding (day 9 of differentiation) to day 10 after seeding (day 18 of differentiation). The number of samples was set to 6, and the time-course change of the TEER values was determined. The TEER values were measured using a Millicell ERS-2 (chopstick type) according to the attached instructions. […]

[2] = test system: iBMECs derived from 610B1 strain; experiment: Time-course change in TEER values, 610B1 strain; assay type: cell-based, human; details: FIG. 3
Protocol: (§1) A coating layer was formed using each of the above-described coating agents. Matrigel was diluted 30-fold with a maintenance medium for human iPS cells on ice, poured onto a well plate, and allowed to stand at 37° C. for 30 minutes or longer to form a coating layer. FBN, VTN-N, LN221F, LN411F, or LN511F was diluted with PBS so as to be 1 μg/cm^2, poured onto a well plate, and allowed to stand at 37° C. for 1 hour to 2 hours to form a coating layer. In addition, a mixture of Fibronectin and Collagen type IV was diluted with PBS so as to be 100 μg/mL and 400 μg/mL, respectively, poured onto a Transwell insert, and allowed to stand at 37° C. for 2 hours or longer to form a coating layer. […]
(§2) TEER values of iBMECs (on day 10 of differentiation) derived from 610B1 strain, which cells had been induced and differentiated on Matrigel or FBN, VTN-N, LN221F, LN411F, or LN511F, were measured. The number of samples was 3, and relative TEER values of iBMECs induced and differentiated on FBN, VTN-N, LN221F, LN411F, or LN511F were determined based on the TEER values of iBMECs induced and differentiated on Matrigel (hereinafter, also referred to as “Matrigel-iBMECs”). […] The number of samples was set to 6, and the time-course change of the TEER values was determined. The TEER values were measured using a Millicell ERS-2 (chopstick type) according to the attached instructions. […]

[3] = test system: iBMECs derived from 648A1 strain; experiment: Time-course change in TEER values, 648A1 strain; assay type: cell-based, human; details: FIG. 4
Protocol: as §1, §2

[4] = test system: iBMECs derived from 610B1 strain; experiment: Test for permeability of FD4 or LY, 610B1 strain; assay type: cell-based, human; details: 60 minutes, day 10 of differentiation
Protocol: (§3) FD4 or LY permeability was tested on Matrigel-iBMECs and LN221F-iBMECs derived from each of 610B1 or 648A1 strain. The number of samples was 6. On day 10 of differentiation, the culture medium was replaced with a transport buffer (HBSS containing 10 mM HEPES solution), and the cells were cultured at 37° C. for 20 minutes. The transport buffer containing 1 mg/mL FD4 or 300 μM LY was added to the apical side. After incubation at 37° C. for 60 minutes, 100 μL of the solution was collected from the basolateral side. The volume of transport buffer was 300 μL on the apical side and 800 μL on the basal side. The fluorescence intensity of FD4 or LY was measured with a Synergy HTX multimode plate reader and analyzed by Gen5 data analysis software.

[5] = test system: iBMECs derived from 648A1 strain; experiment: Test for permeability of FD4 or LY, 648A1 strain; assay type: cell-based, human; details: 60 minutes, day 10 of differentiation
Protocol: as §3

[6] = test system: iBMECs derived from strain 610B1; experiment: Analysis of expression levels of BMEC marker genes by RT-q PCR; assay type: cell-based, human; details: CDHS, MDR1, BCRP, ZO-1, Occludin, GLUT1, LAT1; day 10 of differentiation, corrected with HPRT1, FIG. 7
Protocol: Extraction was performed according to the attached instructions of Agencourt (registered trademark) RNAdvance Tissue Kit.
Complementary DNA (cDNA) was synthesized using ReverTra Ace (registered trademark) qPCR RT Master Mix according to the attached instructions.
The levels of gene expression in Matrigel-iBMECs or LN221F-iBMECs derived from strain 610B1 (on day 10 of differentiation) or human-derived primary BMECs (hereinafter, also referred to as “hBMECs”) were analyzed by RT-q PCR. The number of samples for Matrigel-iBMECs or LN221F-iBMECs was 3, and the number of samples for hBMECs was 1. RT-q PCR was performed with KAPA SYBR Fast qPCR Kit while using cDNA as a template according to the attached instructions. The results obtained were corrected using HPRT1 as an internal control. The relative expression levels of mRNA in LN221F-iBMECs or hBMECs were determined based on the expression levels of mRNA in Matrigel-iBMECs. […]

[7] = test system: iBMECs derived from 610B1 strain; experiment: Protein expression of BMEC markers by immunostaining; assay type: cell-based, human; details: CDH5, P-gp, BCRP, ZO-1, Occludin, Claudin 5; day 10 of differentiation, FIG. 8
Protocol: Matrigel-iBMECs or LN221F-iBMECs (on day 10 of differentiation) derived from 610B1 strain were analyzed by immunostaining in order to analyze the expression levels and localizations of BMEC marker proteins. For Zonula Occludens-1 (ZO-1) and Occludin, the cells on a 96-well plate were fixed in 4 w/v % paraformaldehyde for 15 minutes at room temperature, washed twice with glycine-containing PBS, and then permeabilized with 0.1 w/v % Triton X-100-containing PBS for 25 minutes at room temperature. After blocking for 20 min at room temperature with 5% donkey serum, each primary antibody was used for reaction for 2 hours at room temperature. After washed three times with PBS, the cells were reacted with the secondary antibody, which had been diluted 200-fold, for 60 minutes at room temperature. At this time, 1 μg/mL DAPI as a nuclear staining reagent was mixed in the reaction at the same time. Thereafter, the cells were washed three times with PBS, and were analyzed with an Operetta high content imaging system. […]

P-gp = target: T1, P-gp (Homo sapiens, UniProt P08183); experiment: Substrate uptake test, P-gp function (rhodamine 123 with or without cyclosporine A); assay type: cell-based; details: 10 μM rhodamine 123, 10 μM cyclosporine A, 60 minutes at 37° C., FIG. 9
T1 construct: endogenous in cells; host or cells: Matrigel-iBMECs or LN221F-iBMECs derived from 610B1 strain (iPS cells), day 10 of differentiation
T1 sequence (P08183 whole entry): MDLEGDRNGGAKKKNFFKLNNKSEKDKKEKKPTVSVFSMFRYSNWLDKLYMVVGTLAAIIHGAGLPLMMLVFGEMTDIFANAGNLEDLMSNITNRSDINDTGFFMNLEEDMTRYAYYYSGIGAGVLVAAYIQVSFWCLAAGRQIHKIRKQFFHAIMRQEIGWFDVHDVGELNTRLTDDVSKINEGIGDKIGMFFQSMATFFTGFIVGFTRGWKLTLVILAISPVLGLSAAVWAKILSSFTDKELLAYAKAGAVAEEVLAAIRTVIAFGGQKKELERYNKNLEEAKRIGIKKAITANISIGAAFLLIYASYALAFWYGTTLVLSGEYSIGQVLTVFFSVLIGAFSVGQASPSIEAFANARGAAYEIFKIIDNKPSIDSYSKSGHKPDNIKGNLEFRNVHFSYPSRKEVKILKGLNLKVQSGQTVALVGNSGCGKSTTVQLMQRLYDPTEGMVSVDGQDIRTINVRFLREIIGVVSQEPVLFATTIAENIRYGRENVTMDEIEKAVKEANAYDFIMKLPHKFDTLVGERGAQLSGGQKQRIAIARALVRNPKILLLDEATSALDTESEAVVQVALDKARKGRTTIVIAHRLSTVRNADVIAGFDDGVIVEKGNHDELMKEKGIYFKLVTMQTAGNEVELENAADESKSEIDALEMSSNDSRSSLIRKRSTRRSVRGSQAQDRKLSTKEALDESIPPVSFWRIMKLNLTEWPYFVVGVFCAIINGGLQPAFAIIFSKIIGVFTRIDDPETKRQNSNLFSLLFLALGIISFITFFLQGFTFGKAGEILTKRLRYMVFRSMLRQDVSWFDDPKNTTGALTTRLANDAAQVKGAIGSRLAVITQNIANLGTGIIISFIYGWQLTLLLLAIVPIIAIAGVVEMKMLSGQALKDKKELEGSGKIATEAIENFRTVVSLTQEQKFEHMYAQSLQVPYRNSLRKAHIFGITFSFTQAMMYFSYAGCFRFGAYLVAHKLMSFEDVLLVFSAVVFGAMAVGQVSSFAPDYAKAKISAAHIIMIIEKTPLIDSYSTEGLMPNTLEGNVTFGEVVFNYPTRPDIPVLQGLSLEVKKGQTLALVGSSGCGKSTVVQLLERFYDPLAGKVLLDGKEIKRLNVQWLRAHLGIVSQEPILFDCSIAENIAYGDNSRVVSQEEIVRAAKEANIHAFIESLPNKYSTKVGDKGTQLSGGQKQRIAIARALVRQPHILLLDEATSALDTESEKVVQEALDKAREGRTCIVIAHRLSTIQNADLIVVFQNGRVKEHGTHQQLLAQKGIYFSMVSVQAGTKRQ
Protocol: (§4) For functional analysis of P-gp and BCRP as efflux transporters, Matrigel-iBMECs or LN221F-iBMECs (on day 10 of differentiation) derived from 610B1 strain were tested for substrate uptake. As the substrate, rhodamine 123 or Hoechst 33342 was used. The culture medium was removed and the cells on a 96-well plate were pre-incubated in a transport buffer for 15 minutes at 37° C. Note that the number of samples was 6. The cells were incubated, in the presence or absence of 10 μM cyclosporine A (CsA), an inhibitor of P-gp, or 20 μM Ko 143, an inhibitor of BCRP, in a transport buffer containing 10 μM rhodamine 123 or 10 μM Hoechst 33342 for 60 minutes at 37° C. The cells were then washed three times with PBS and lysed in PBS containing 5 w/v % Triton X-100. The fluorescence intensities of rhodamine 123 or Hoechst 33342 were measured with a Synergy HTX multimode plate reader and analyzed by Gen5 data analysis software.

BCRP = target: T2, BCRP (Homo sapiens, UniProt Q9UNQ0); experiment: Substrate uptake test, BCRP function (Hoechst 33342 with or without Ko 143); assay type: cell-based; details: 10 μM Hoechst 33342, 20 μM Ko 143, 60 minutes at 37° C., FIG. 10
T2 construct: endogenous in cells; host or cells: Matrigel-iBMECs or LN221F-iBMECs derived from 610B1 strain (iPS cells), day 10 of differentiation
T2 sequence (Q9UNQ0 1-655): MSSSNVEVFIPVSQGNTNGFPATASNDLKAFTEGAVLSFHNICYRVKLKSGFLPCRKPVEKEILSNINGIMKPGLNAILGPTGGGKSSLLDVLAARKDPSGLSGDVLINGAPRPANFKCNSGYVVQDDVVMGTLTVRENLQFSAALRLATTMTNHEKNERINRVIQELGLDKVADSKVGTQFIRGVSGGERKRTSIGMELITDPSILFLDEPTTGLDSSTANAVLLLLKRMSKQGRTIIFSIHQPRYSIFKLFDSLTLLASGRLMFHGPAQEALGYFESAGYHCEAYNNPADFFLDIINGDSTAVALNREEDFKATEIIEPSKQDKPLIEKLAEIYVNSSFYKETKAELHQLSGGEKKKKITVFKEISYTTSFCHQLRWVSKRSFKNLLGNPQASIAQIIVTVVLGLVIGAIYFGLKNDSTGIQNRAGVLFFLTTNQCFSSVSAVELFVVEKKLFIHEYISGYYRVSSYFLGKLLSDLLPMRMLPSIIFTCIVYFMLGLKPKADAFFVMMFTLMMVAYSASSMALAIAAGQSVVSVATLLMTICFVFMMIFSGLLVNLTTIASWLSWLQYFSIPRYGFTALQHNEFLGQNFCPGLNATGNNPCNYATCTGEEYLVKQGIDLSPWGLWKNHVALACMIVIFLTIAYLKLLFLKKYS
Protocol: as §4

For Laminin-221 fragment [LN221F], the “relative TEER value (Matrigel-iBMECs set to 1.0)” value ([1]; FIG. 2) was “about 2 times”, the “TEER value compared with iBMECs induced and differentiated on Matrigel” value [1] was “higher TEER value” and the “TEER value compared with Matrigel-iBMECs over a long period of time” value ([2]; day 1 to day 10 after seeding) was “higher TEER value”. For the same substance, the TEER value ([2]; over a long period of time) was ≥ 1000 Ω×cm^2, the “TEER value compared with Matrigel-iBMECs over a long period of time” value ([3]; day 1 to day 10 after seeding) was “higher TEER value” and the TEER value ([3]; over a long period of time) was ≥ 1000 Ω×cm^2. For the same substance, the “permeability coefficient of LY compared with Matrigel-iBMECs” value ([4]; 300 μM LY apical, FIG. 6) was “lower permeability coefficient”, the “permeability coefficient of FD4 compared with Matrigel-iBMECs” value ([4]; 1 mg/mL FD4 apical, FIG. 5) was “lower permeability coefficient” and the “permeability coefficient of LY compared with Matrigel-iBMECs” value ([5]; 300 μM LY apical, FIG. 6) was “lower permeability coefficient”. For the same substance, the “permeability coefficient of FD4 compared with Matrigel-iBMECs” value ([5]; 1 mg/mL FD4 apical, FIG. 5) was “lower permeability coefficient”, the “mRNA expression level of BMEC markers compared with Matrigel-iBMECs” value [6] was “almost equivalent” and the “protein expression levels and localizations of BMEC markers compared with Matrigel-iBMECs” value [7] was “almost equivalent”. For the same substance, the “accumulation of substrate in the presence of the inhibitor versus absence (P-gp function)” value (P-gp) was “larger” and the “accumulation of substrate in the presence of the inhibitor versus absence (BCRP function)” value (BCRP) was “larger”.

In the case of N-terminal Vitronectin [VTN-N], the “TEER value compared with iBMECs induced and differentiated on Matrigel” value [1] is reported as “higher TEER value”.
